# Where two headings read alike, the source gives them in different places.
# Columns and labels:
# [1] = biological target: GAL4 DBD (1-147)-CfEcR(DEF)/VP16AD-βRXREF-LmUSPEF (Choristoneura fumiferana, UniProt O77240); assay: cell-based; details: for Fold Induction, 27-63 Assay, 3.3 uM: 3.3 uM ligand; for Fold Induction, 27-63 Assay, 3.3 uM / Fold Induction, 27-63 Assay, 33 uM: RLU ligand treated / RLU DMSO treated cells; for Fold Induction, 27-63 Assay, 33 uM: 33 uM ligand; for 27-63 assay Rel Max FI: maximum fold induction at any concentration relative to that of GS-E ligand, CHO 27-63 cells; for fold induction at 3.3 µM: read-out: Fold Induction, 27-63 Assay, 3.3 uM; for fold induction at 33 µM: read-out: Fold Induction, 27-63 Assay, 33 uM
# [2] = biological target: GAL4 DBD-CfEcR(DEF)/VP16AD-MmRXRE (Choristoneura fumiferana, UniProt O77240); assay: 13B3 Assay (CHO stable cell line, luciferase reporter); details: for Fold Induction, 13B3 Assay, 3.3 uM: 3.3 uM ligand; for Fold Induction, 13B3 Assay, 3.3 uM / Fold Induction, 13B3 Assay, 33 uM: RLU ligand treated / RLU DMSO treated cells; for Fold Induction, 13B3 Assay, 33 uM: 33 uM ligand; for 13B3 assay Rel Max FI: maximum fold induction at any concentration relative to that of GS-E ligand, CHO 13B3 cells; for fold induction at 3.3 µM: read-out: Fold Induction, 13B3 Assay, 3.3 uM; for fold induction at 33 µM: read-out: Fold Induction, 13B3 Assay, 33 uM
# In short: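 CHO 13B3 clone stably expressing GAL4 DBD–CfEcR(DEF) and VP16AD–MmRXR(DE) with GAL4 RE–luciferase reporter; cells plated 24 h at 37 °C, then treated with ligands (DMSO stocks diluted 300-fold), 8 concentrations 33–0.01 μM.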
# [3] = read-out: 27-63 assay EC50, CHO 27-63 stable cell line, luciferase reporter, average of two wells
# [4] = read-out: 13B3 EC50, CHO 13B3 stable cell line, luciferase reporter, 48 h, average of two wells
SMILES,"Fold Induction, 27-63 Assay, 3.3 uM ([1]; average of two wells)","Fold Induction, 27-63 Assay, 33 uM ([1]; average of two wells)",27-63 assay Rel Max FI [1],"EC50 [1, 3] [nM]","Fold Induction, 13B3 Assay, 3.3 uM ([2]; average of two wells)","Fold Induction, 13B3 Assay, 33 uM ([2]; average of two wells)",13B3 assay Rel Max FI [2],"EC50 [2, 4] [nM]",EC50 [1] [nM],fold induction at 3.3 µM [1],fold induction at 33 µM [1],EC50 [2] [nM],fold induction at 3.3 µM [2],fold induction at 33 µM [2]
Cc1ccc(F)c(C(=O)N(NC(=O)c2ccc3c(c2C)CCCO3)C(C)(C)C)c1 [RG-115499],2092,1536,0.705,336,1182,731,0.489,328,,,,,,
CCc1c(OC)cccc1C(=O)NN(C(=O)c1c(F)cccc1F)C(C)(C)C [RG-115033],2,1256,0.868,18100,386,12,0.643,1000,,,,,,
COc1cccc(C(=O)NN(C(=O)c2cccc(C)c2)C(C)(C)C)c1C [RG-100694],1057,1004,0.767,400,3385,2078,0.632,405,,,,,,
CCc1c(C(=O)NN(C(=O)c2cccc(OC)c2)C(C)(C)C)ccc2c1OCCO2 [RG-100691],1378,1209,0.863,330,,643,,,,,,,,
COc1cnccc1C(=O)N(NC(=O)c1cccc(O)c1C)C(C)(C)C [RG-115595],,,,,6,1381,,,,,,,,
CCc1c(OC)cccc1C(=O)NN(C(=O)c1cc(C)ccc1[N+](=O)[O-])C(C)(C)C [RG-115162],1814,1464,0.653,424,755,320,0.630,811,,,,,,
CCCC(N(NC(=O)c1cccc(OC)c1C)C(=O)c1cc(OC)c(C)c(OC)c1)C(C)(C)C (stereo not drawn) [RG-115824],2675,948,1.218,36,,,,,,,,,,
"CCC(N(NC(=O)c1cccc(OC)c1C)C(=O)c1cc(OC)c(C)c(OC)c1)C(C)(C)C (stereo not drawn) [RG-115820, 3,5-dimethoxy-4-methyl-benzoic acid N-(1-ethyl-2,2-dimethyl-propyl)-N′-(3-methoxy-2-methyl-benzoyl)-hydrazide]",,,1.270,,,,,,193,2860,1970,,,
CCc1c(OC)cccc1C(=O)NN(C(=O)c1cc(OC)c(C)c(OC)c1)C(CC)C(C)(C)C (stereo not drawn) [RG-115831],2063,1435,1.366,96,,,,,,,,,,
COc1cccc(C(=O)NN(C(=O)c2cc(C)cc(C)c2)C(C)(C)C)c1C [RG-102398],,,1.017,,,,0.838,,325,2880,3180,627,8120,795
"CCc1c(OC)cccc1C(=O)NN(C(=O)c1cc(C)cc(C)c1)C(C)(C)C=NO [RG-115258, 2-ethyl-3-methoxy-benzoic acid N′-(3,5-dimethyl-benzoyl)-N′-(2-hydroxyimino-1,1-dimethyl-ethyl)-hydrazide]",,,1.279,,,,1.334,,1880,1970,2210,27100,144,3740
"COc1cc(C(=O)N(NC(=O)c2ccc3c(c2C)OCCO3)C(C)(C)C)cc(OC)c1C [RG-115637, 5-Methyl-2,3-dihydro-benzo[1,4]dioxine-6-carboxylic acid N′-tert-butyl-N′-(3,5-dimethoxy-4-methyl-benzoyl)-hydrazide]",,,1.305,,,,1.002,,117,4160,2740,88,1110,636
"CCC(N(NC(=O)c1cccc(OC)c1C)C(=O)c1cc(C)cc(C)c1)C(C)(C)C (stereo not drawn) [RG-115819, 3,5-dimethyl-benzoic acid N-(1-ethyl-2,2-dimethyl-propyl)-N′-(3-methoxy-2-methyl-benzoyl)-hydrazide]",,,1.045,,,,,,25,1970,2370,,,
COc1cccc(C(=O)NN(C(=O)c2cc(C)ccc2[N+](=O)[O-])C(C)(C)C)c1C [RG-100569],884,841,0.720,287,1710,329,0.773,185,,,,,,
